Assay in all cases: relative viability (nuclei count vs DMSO), 5 days (fraction); higher = more cells survive
Compound in assay [1]: CS(=O)(=O)N1CCN(Cc2cc3nc(-c4cccc5[nH]ncc45)nc(N4CCOCC4)c3s2)CC1 [Pictilisib] + Nc1ncn([C@H]2C[C@H](O)[C@@H](CO)O2)c(=O)n1 [Decitabine] (partner 2 µM)
A digest of the protocol:
(§1)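 Relative viability divides the nuclei count in treated wells by that in vehicle wells. Lung cancer cell lines were seeded in 1536-well plates, dosed by pin tool the next day, and fixed and stained after 5 days in one step with final 0.05% Triton X-100, 1% formaldehyde and 1 ug/ml Hoechst. Dosing was a single drug or a fixed anchor-drug dose plus five library-drug doses (not always all listed) in √10 steps, and values are medians of duplicate plates imaged at 4×.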

Compound in assay [2]: CS(=O)(=O)N1CCN(Cc2cc3nc(-c4cccc5[nH]ncc45)nc(N4CCOCC4)c3s2)CC1 [Pictilisib] + O=C(c1cc(Cc2n[nH]c(=O)c3ccccc23)ccc1F)N1CCN(C(=O)C2CC2)CC1 [Olaparib] (partner 8 µM)
An outline of the steps:
as §1

Compound in assay [3]: NC1(c2ccc(-c3nc4ccn5c(=O)[nH]nc5c4cc3-c3ccccc3)cc2)CCC1 [MK-2206] + Cc1cc(Nc2cc(N3CCN(C)CC3)nc(Sc3ccc(NC(=O)C4CC4)cc3)n2)n[nH]1 [Tozasertib] (partner 0.1 µM)
An outline of the steps:
as §1

Compound in assay [4]: NC1(c2ccc(-c3nc4ccn5c(=O)[nH]nc5c4cc3-c3ccccc3)cc2)CCC1 [MK-2206] + O=C(c1cc(Cc2n[nH]c(=O)c3ccccc23)ccc1F)N1CCN(C(=O)C2CC2)CC1 [Olaparib] (partner 8 µM)
A digest of the protocol: as §1

Compound in assay [5]: NC1(c2ccc(-c3nc4ccn5c(=O)[nH]nc5c4cc3-c3ccccc3)cc2)CCC1 [MK-2206] + CS(=O)(=O)CCNCc1ccc(-c2ccc3ncnc(Nc4ccc(OCc5cccc(F)c5)c(Cl)c4)c3c2)o1 [Lapatinib] (partner 2 µM)
An outline of the steps: as §1

In the case of UMC-11, the relative viability in assay [1] (first compound 0.02 µM) turned out to be 0.644; in assay [1] (first compound 0.06325 µM) it was 0.724; in assay [1] (first compound 0.6325 µM), 0.566; in assay [1] (first compound 2 µM), 0.519; in assay [2] (first compound 0.02 µM), 0.822; in assay [2] (first compound 0.06325 µM) it was 0.344. The relative viability in assay [2] (first compound 0.6325 µM) was 0.666; in assay [2] (first compound 2 µM), 0.384; in assay [3] (first compound 0.01 µM), 0.194; in assay [3] (first compound 0.03162 µM), 0.2; in assay [3] (first compound 0.3162 µM), 0.214; in assay [3] (first compound 1 µM), 0.192. Besides, the relative viability in assay [4] (first compound 0.01 µM) stood at 0.52; in assay [4] (first compound 0.03162 µM) it was 1.16; in assay [4] (first compound 0.3162 µM), 0.381; in assay [4] (first compound 1 µM), 0.363; in assay [5] (first compound 0.01 µM), 1.27; in assay [5] (first compound 0.03162 µM), 1.1. The relative viability in assay [5] (first compound 0.3162 µM) was 0.99; in assay [5] (first compound 1 µM), 0.941.

(Values after the supplement of paper PMC10307832.)
